The NIST ThermoML archive (doi:10.1021/je5000132)

Experiment: xn = mol fraction of the nth substance listed
Conditions: for speed of sound: 100 kPa, Pulse-echo method; for speed of sound / viscosity / mass density: Liquid; for viscosity / mass density: 101 kPa; for viscosity: Concentric cylinders viscometry; for mass density: Vibrating tube method; for surface tension liquid-gas: 294.7 K, Drop volume

CC(CC(C)(C)C)CC(C)(C)C [2,2,4,6,6-pentamethylheptane] + CCCCCCCCCCCC
Conditions	mass density [kg/m3]	speed of sound [m/s]	viscosity [mPa·s]
293.15 K, x1 = 0.1	748.467	1288.5	1.45
293.15 K, x1 = 0.2	748.123	1279.3	1.42
293.15 K, x1 = 0.2885	747.857	1271.4	1.4
293.15 K, x1 = 0.3998	747.387	1261.4	1.37
293.15 K, x1 = 0.4999	747.034	1251.6	1.35
293.15 K, x1 = 0.6501	746.519	1238	1.33
293.15 K, x1 = 0.7998	745.947	1223.2	1.31
293.15 K, x1 = 1	–	1203.6	–
303.15 K, x1 = 0.1	741.234	1250.3	1.22
303.15 K, x1 = 0.2	740.898	1241.1	1.2
303.15 K, x1 = 0.2885	740.654	1233.2	1.18
303.15 K, x1 = 0.3998	740.15	1223.2	1.16
303.15 K, x1 = 0.4999	739.835	1213.4	1.15
303.15 K, x1 = 0.6501	739.313	1199.6	1.13
303.15 K, x1 = 0.7998	738.715	1184.7	1.12
303.15 K, x1 = 1	–	1164.8	–
313.15 K, x1 = 0.1	733.97	1212.5	1.03
313.15 K, x1 = 0.2	733.64	1203.3	1.02
313.15 K, x1 = 0.2885	733.415	1195.5	1
313.15 K, x1 = 0.3998	732.953	1185.4	0.988
313.15 K, x1 = 0.4999	732.598	1175.7	0.977
313.15 K, x1 = 0.6501	732.066	1161.8	0.962
313.15 K, x1 = 0.7998	731.445	1146.8	0.952
313.15 K, x1 = 1	–	1126.7	–
323.15 K, x1 = 0.1	726.674	1175.3	0.898
323.15 K, x1 = 0.2	726.352	1166.2	0.885
323.15 K, x1 = 0.2885	726.139	1158.3	0.876
323.15 K, x1 = 0.3998	725.68	1148.3	0.863
323.15 K, x1 = 0.4999	725.324	1138.5	0.856
323.15 K, x1 = 0.6501	724.781	1124.6	0.844
323.15 K, x1 = 0.7998	724.136	1109.5	0.836
323.15 K, x1 = 1	–	1089.3	–
333.15 K, x1 = 0.1	719.342	1138.7	0.784
333.15 K, x1 = 0.2	719.024	1129.6	0.774
333.15 K, x1 = 0.2885	718.82	1121.7	0.766
333.15 K, x1 = 0.3998	718.363	1111.7	0.757
333.15 K, x1 = 0.4999	718.004	1101.9	0.75
333.15 K, x1 = 0.6501	717.449	1087.9	0.741
333.15 K, x1 = 0.7998	716.783	1072.8	0.734
333.15 K, x1 = 1	–	1052.5	–
343.15 K, x1 = 0.1	711.9	–	0.691
343.15 K, x1 = 0.2	711.7	–	0.683
343.15 K, x1 = 0.2885	711.5	–	0.677
343.15 K, x1 = 0.3998	710.9	–	0.668
343.15 K, x1 = 0.4999	710.6	–	0.664
343.15 K, x1 = 0.6501	710	–	0.656
343.15 K, x1 = 0.7998	709.4	–	0.651
353.15 K, x1 = 0.1	704.4	–	0.614
353.15 K, x1 = 0.2	704.1	–	0.607
353.15 K, x1 = 0.2885	703.8	–	0.603
353.15 K, x1 = 0.3998	703.5	–	0.595
353.15 K, x1 = 0.4999	703	–	0.591
353.15 K, x1 = 0.6501	702.5	–	0.584
353.15 K, x1 = 0.7998	701.8	–	0.58
363.15 K, x1 = 0.1	696.8	–	0.551
363.15 K, x1 = 0.2	696.5	–	0.545
363.15 K, x1 = 0.2885	696.3	–	0.526
363.15 K, x1 = 0.3998	695.8	–	0.534
363.15 K, x1 = 0.4999	695.4	–	0.531
363.15 K, x1 = 0.6501	694.8	–	0.525
363.15 K, x1 = 0.7998	694.1	–	0.521
373.15 K, x1 = 0.1	689	–	0.498
373.15 K, x1 = 0.2	688.8	–	0.493
373.15 K, x1 = 0.2885	688.6	–	0.49
373.15 K, x1 = 0.3998	688.1	–	0.483
373.15 K, x1 = 0.4999	687.7	–	0.481
373.15 K, x1 = 0.6501	687.1	–	0.476
373.15 K, x1 = 0.7998	686.3	–	0.472

Conditions	surface tension liquid-gas [mN/m]
x1 = 0.1	24.3
x1 = 0.2	24.1
x1 = 0.2885	23.7
x1 = 0.3998	23.3
x1 = 0.4999	23.2
x1 = 0.6501	22.7
x1 = 0.7998	22.3
x1 = 1	21.8
